Experimental data reported in US11219598B2, “Ophthalmic drug sustained release device” (PUBLIC UNIVERSITY CORPORATION NAGOYA CITY UNIVERSITY, priority 2016, dated 2022).

Experiment: Drug release test of solid fluorescein sodium-enclosed PMMA hollow device filled with SF6 gas after transplantation into rabbit
Type: in vivo
Settings: fluorescence intensity meter, after initial burst, from the first week
Description: In order to prepare a hollow device made of a polymethyl methacrylate (PMMA) resin as an acrylic resin having low oxygen permeability, outer edge portions of optical parts of two PMMA intraocular lenses were bonded with an adhesive, as a trial model. The cavity volume was calculated to be 11.3 μL. One opening part was made without using an adhesive (arrow) (FIG. 3(A), and FIG. 4). In order to examine the drug release property, a 10% aqueous solution of sodium fluorescein as a low-molecular-weight water-soluble fluorescent dye was filled in the cavity of the PMMA hollow device and air-dried (FIG. 3(B)). The solid fluorescein sodium-enclosed PMMA hollow device was placed in 100% SF6 gas, and its hollow portion was filled with the gas (FIG. 3(B)). After a rabbit was anesthetized by intramuscular injection of Ketalar and Selactar, the pupil of the right eye was dilated with a […] hydrochloride ophthalmic solution (Mydrin-P (registered trademark), Santen Pharmaceutical Co., Ltd.). […] The residual amount of gas was measured from the photograph of the anterior ocular segment and the content of fluorescein sodium in the anterior chamber water sample was measured with a fluorescence intensity meter. […]

## O=C1OC2(c3ccc(O)cc3Oc3cc(O)ccc32)c2ccccc21 [fluorescein sodium, sodium fluorescein]
  drug release profile (fluorescein sodium content in anterior chamber water): stable sustained release
